Among the data in ChEMBL document CHEMBL5723035, “Affinity Biochemical Literature for EUbOPEN Chemogenomic Library” (2024) are Ki, IC50 and inhibition values, retold here.

As a reminder, the Ki is a dissociation constant, usually derived from enzyme kinetics or from competition with a known ligand. What is called IC50 is the concentration that gives 50% inhibition. A low value points to inhibition by little substance. For orientation: inhibition means the drop in the measured response relative to a control, in per cent. The low end stands for little suppression, the high end for strong suppression.

Residues, ends and D or L forms follow the SMILES beside them. *: point of attachment. Boc = CC(C)(C)OC(=O)*

One assay addresses Caspase-7 (Homo sapiens, UniProt P55210). In words: Affinity Biochemical interaction: (enzymatic assay (fluorogenic substrate cleavage)) EUB0002173aAD CASP7. It is filed as functional. Set-up: mode of action Inhibitor, recommended concentration 1 uM.
The target of another assay is Caspase-10 (Homo sapiens, UniProt Q92851). In words: Affinity Biochemical interaction: (enzymatic assay (fluorogenic substrate cleavage)) EUB0002173aAD CASP10. Format: functional. Set-up: mode of action Inhibitor, recommended concentration 1 uM.
Chain of Caspase-10 (Q92851 220-415 limits assumed): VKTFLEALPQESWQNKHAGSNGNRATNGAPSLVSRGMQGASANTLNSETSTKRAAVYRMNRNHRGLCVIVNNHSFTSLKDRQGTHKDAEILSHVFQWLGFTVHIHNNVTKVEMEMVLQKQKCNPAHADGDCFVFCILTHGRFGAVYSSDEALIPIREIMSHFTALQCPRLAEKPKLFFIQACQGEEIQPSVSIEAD
Chain of Caspase-10 (Q92851 416-521 limits assumed): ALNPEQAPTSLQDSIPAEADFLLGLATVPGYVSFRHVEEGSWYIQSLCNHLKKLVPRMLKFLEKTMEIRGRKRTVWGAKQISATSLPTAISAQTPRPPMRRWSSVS
The target of assay [1] is T1, Caspase-8 (Homo sapiens, UniProt Q14790). Put plainly: Affinity Biochemical interaction: (enzymatic assay (fluorogenic substrate cleavage)) EUB0002173aAD CASP8. Format: functional. The arrangement: mode of action Inhibitor, recommended concentration 1 uM.
T1 sequence (Q14790 217-374 limits assumed): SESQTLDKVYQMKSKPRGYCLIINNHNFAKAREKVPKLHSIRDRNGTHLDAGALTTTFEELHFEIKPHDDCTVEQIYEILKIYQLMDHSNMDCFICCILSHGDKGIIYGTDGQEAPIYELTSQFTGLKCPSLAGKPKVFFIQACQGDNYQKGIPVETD
T1 sequence (Q14790 385-479 limits assumed): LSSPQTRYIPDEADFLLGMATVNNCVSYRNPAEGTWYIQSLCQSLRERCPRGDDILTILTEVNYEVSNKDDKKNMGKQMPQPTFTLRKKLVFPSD
Assay [2] addresses Histone-lysine N-methyltransferase SMYD3 (Homo sapiens, UniProt Q9H7B4). In words: Affinity Biochemical interaction: (inhibition of methylation activity, scintillation proximity assay utilizing [3 H]-SAM with specific product capture of biotin-tagged peptides on streptavidin SPA beads) EUB0002243aAD SMYD3. Format: functional. The arrangement: mode of action Inhibitor, recommended concentration 1 uM.

Assay [3] addresses T2, Caspase-3 (Homo sapiens, UniProt P42574).
T2 sequence (P42574 whole entry): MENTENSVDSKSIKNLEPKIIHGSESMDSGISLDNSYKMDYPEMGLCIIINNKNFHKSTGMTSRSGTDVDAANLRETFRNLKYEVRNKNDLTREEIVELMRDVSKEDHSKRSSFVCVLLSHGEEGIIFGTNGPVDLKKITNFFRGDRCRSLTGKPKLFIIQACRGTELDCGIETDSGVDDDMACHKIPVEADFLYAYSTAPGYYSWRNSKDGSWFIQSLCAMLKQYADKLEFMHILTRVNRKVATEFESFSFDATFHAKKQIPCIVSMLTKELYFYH
In words: Affinity Biochemical interaction: (enzymatic assay (fluorogenic substrate cleavage)) EUB0002175aAD CASP3. Format: functional. Set-up: mode of action Inhibitor, recommended concentration 1 uM.

For assay [4], the target named is Diacylglycerol lipase-beta (Homo sapiens) (UniProt Q8NCG7). Put plainly: Affinity Biochemical interaction: (Gel-based competitive ABPP) EUB0002547a DAGLB. Format: functional. The arrangement: recommended concentration 1 uM. The settings on record: Affinity Biochemical Source Knowledge https://pubs.acs.org/doi/epdf/10.1021/jm400898x.
Chain of Diacylglycerol lipase-beta (Homo sapiens) (Q8NCG7 whole entry): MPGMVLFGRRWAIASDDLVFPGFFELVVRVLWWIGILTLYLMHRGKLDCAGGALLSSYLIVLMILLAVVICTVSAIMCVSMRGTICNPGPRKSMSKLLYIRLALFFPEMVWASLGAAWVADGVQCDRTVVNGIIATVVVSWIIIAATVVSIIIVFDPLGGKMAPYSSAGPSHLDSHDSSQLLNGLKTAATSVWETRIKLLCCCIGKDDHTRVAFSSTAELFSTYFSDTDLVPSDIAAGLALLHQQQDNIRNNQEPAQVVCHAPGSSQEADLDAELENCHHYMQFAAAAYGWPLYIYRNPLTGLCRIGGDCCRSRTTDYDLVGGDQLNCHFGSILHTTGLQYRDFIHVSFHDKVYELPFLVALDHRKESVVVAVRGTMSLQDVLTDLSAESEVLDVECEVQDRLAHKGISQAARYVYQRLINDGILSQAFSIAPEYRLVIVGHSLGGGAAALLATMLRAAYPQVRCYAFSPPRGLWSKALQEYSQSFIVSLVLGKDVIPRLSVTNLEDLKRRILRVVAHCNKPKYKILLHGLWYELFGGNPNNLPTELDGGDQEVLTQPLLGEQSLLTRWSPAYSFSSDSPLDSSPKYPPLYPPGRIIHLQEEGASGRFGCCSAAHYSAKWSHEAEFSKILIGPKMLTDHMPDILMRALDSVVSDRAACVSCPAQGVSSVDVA
Assay [5] addresses T3, Caspase-1 (Homo sapiens, UniProt P29466). In words: Affinity Biochemical interaction: (enzymatic assay (fluorogenic substrate cleavage)) EUB0002190aAD CASP1. It is filed as functional. Set-up: mode of action Inhibitor, recommended concentration 1 uM.
In another assay the target is Caspase-9 (Homo sapiens, UniProt P55211). Put plainly: Affinity Biochemical interaction: (enzymatic assay (fluorogenic substrate cleavage)) EUB0002190aAD CASP9. Set-up: mode of action Inhibitor, recommended concentration 1 uM. Format: functional.
Chain of Caspase-9 (P55211 1-315 limits assumed): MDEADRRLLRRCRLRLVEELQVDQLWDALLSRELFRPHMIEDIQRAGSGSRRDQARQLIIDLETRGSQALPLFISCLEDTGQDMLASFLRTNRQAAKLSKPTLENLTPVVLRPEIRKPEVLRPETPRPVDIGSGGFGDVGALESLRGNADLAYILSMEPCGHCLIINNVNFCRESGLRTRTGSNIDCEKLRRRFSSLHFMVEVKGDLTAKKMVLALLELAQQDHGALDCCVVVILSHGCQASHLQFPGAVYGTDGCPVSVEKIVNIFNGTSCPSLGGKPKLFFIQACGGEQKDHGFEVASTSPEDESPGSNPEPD
Chain of Caspase-9 (P55211 331-416 limits assumed): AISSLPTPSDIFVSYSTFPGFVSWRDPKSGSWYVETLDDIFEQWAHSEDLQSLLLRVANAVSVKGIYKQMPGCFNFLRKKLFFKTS
Assay [6] concerns the target T2, Caspase-3. In words: Affinity Biochemical interaction: (enzymatic assay (fluorogenic substrate cleavage)) EUB0002190aAD CASP3. Set-up: mode of action Inhibitor, recommended concentration 1 uM. It is filed as functional.
For assay [7], the target named is T1, Caspase-8. Put plainly: Affinity Biochemical interaction: (enzymatic assay (fluorogenic substrate cleavage)) EUB0002190aAD CASP8. It is filed as functional. The arrangement: mode of action Inhibitor, recommended concentration 1 uM.
In another assay the target is Caspase-6 (Homo sapiens, UniProt P55212). In words: Affinity Biochemical interaction: (enzymatic assay (fluorogenic substrate cleavage)) EUB0002190aAD CASP6. Set-up: mode of action Inhibitor, recommended concentration 1 uM. It is filed as functional.
Chain of Caspase-6 (P55212 24-179 limits assumed): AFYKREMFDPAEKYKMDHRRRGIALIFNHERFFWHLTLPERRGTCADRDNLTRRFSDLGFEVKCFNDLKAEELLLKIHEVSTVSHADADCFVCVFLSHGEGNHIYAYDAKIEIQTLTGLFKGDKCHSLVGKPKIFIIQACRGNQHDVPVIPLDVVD
Chain of Caspase-6 (P55212 194-293 limits assumed): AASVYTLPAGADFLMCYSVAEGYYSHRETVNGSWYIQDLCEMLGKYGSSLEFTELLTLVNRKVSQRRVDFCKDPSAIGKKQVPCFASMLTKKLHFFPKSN
The target in assay [8] is T1, Caspase-8. Put plainly: Affinity Biochemical interaction: (enzymatic assay (fluorogenic substrate cleavage)) EUB0002198aAD CASP8. Format: functional. The arrangement: mode of action Inhibitor, recommended concentration 1 uM.
Assay [9] addresses T3, Caspase-1. Put plainly: Affinity Biochemical interaction: (enzymatic assay (fluorogenic substrate cleavage)) EUB0002198aAD CASP1. Format: functional. Set-up: mode of action Inhibitor, recommended concentration 1 uM.
The next assay addresses Caspase-4 (Homo sapiens, UniProt P49662). In words: Affinity Biochemical interaction: (enzymatic assay (fluorogenic substrate cleavage)) EUB0002201a CASP4. It is filed as functional. Set-up: mode of action Inhibitor, recommended concentration 1 uM.
In assay [10] the target is T1, Caspase-8. In words: Affinity Biochemical interaction: (enzymatic assay (fluorogenic substrate cleavage)) EUB0002177aAD CASP8. It is filed as functional. Set-up: mode of action Inhibitor, recommended concentration 1 uM.
The target of assay [11] is Monocarboxylate transporter 1 (Homo sapiens, UniProt P53985). Put plainly: Affinity Biochemical interaction: (Displacement of radiolabelled [3H]-BAY-8002) EUB0001677b SLC16A1. Set-up: mode of action Inhibitor, recommended concentration 1 uM.
Chain of Monocarboxylate transporter 1 (P53985 whole entry): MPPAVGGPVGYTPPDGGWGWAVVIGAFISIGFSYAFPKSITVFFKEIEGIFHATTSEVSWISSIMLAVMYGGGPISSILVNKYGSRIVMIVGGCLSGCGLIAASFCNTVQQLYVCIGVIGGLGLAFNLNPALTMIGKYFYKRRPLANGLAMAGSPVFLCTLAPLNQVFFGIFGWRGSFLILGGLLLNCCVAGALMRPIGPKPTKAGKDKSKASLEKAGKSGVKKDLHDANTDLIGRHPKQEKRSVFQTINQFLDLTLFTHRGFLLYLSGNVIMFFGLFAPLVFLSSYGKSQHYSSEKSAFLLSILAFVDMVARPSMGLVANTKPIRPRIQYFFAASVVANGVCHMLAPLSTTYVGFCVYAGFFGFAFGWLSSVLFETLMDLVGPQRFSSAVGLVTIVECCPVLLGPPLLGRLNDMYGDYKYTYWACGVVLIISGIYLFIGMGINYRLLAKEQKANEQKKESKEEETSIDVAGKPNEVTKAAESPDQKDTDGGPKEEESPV
Assay [12] deals with T4, Histone-lysine N-methyltransferase EZH1 (Homo sapiens, UniProt Q92800). In words: Affinity Biochemical interaction: (ELISA-based protein substrate methylation assay) EUB0002228a EZH1. It is filed as functional. The arrangement: mode of action Inhibitor, recommended concentration 1 uM. In general terms: In an ELISA, binding on a coated surface is turned into a signal by an enzyme label.
T4 sequence (Q92800 whole entry): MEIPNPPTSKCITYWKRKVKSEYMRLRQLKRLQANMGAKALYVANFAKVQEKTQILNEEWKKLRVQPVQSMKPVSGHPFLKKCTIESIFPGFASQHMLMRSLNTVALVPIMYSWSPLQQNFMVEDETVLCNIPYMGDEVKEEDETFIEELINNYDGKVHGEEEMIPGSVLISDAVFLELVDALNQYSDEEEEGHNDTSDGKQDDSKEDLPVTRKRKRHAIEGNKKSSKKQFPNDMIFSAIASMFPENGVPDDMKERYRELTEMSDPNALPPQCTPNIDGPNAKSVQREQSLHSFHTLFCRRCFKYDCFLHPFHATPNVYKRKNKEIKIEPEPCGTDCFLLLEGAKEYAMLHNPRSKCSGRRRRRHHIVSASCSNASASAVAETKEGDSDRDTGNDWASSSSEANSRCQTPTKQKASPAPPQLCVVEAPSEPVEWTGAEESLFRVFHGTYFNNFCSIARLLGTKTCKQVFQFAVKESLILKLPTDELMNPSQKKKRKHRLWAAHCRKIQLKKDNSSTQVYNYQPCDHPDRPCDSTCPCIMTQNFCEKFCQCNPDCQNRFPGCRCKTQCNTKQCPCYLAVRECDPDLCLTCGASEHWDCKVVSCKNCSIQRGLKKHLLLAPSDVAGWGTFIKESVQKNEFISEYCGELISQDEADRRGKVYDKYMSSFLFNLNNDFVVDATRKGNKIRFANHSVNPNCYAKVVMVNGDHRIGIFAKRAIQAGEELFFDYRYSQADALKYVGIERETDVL

Assay [13] addresses T4, Histone-lysine N-methyltransferase EZH1. In words: Affinity Biochemical interaction: (inhibition of EZH1 for both SAM and peptide substrates using a Flashplate assay to measure the transfer of a tritiated methyl group from SAM to the peptide) EUB0002228a EZH1. It is filed as functional. Set-up: mode of action Inhibitor, recommended concentration 1 uM.
Assay [14] can be described thus: Affinity Biochemical interaction: (enzymatic assay (fluorogenic substrate cleavage)) EUB0002134a CAPN2.

Chain of Histone-lysine N-methyltransferase SMYD3 (Q9H7B4 whole entry): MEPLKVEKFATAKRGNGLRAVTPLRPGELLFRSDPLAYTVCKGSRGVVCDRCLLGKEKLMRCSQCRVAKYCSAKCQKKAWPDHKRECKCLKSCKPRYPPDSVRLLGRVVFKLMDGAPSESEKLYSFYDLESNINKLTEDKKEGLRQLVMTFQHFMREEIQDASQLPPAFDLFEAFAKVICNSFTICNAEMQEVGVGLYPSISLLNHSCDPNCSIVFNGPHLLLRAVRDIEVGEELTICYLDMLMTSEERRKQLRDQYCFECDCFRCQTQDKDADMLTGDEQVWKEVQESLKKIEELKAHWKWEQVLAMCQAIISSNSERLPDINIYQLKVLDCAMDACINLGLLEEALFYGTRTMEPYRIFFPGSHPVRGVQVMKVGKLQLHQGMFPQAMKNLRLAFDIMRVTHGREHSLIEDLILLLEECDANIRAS
T3 sequence (P29466 120-297 limits assumed): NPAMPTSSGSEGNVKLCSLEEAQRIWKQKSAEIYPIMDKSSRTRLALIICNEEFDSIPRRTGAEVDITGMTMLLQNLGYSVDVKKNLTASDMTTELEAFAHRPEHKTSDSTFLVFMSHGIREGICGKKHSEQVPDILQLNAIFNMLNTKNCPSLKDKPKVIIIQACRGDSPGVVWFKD
T3 sequence (P29466 317-404 limits assumed): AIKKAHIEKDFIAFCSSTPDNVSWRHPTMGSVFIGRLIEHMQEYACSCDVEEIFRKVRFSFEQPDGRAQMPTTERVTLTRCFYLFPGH
Chain of Caspase-7 (P55210 24-198 limits assumed): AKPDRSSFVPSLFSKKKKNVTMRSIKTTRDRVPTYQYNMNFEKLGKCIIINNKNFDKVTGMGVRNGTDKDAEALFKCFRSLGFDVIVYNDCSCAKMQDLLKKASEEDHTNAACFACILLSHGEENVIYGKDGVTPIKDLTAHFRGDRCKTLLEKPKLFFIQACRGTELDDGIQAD
Chain of Caspase-7 (P55210 207-303 limits assumed): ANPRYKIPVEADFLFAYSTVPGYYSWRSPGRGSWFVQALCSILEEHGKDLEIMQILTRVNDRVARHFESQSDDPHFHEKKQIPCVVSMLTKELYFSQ
Chain of Caspase-4 (P49662 81-270 limits assumed): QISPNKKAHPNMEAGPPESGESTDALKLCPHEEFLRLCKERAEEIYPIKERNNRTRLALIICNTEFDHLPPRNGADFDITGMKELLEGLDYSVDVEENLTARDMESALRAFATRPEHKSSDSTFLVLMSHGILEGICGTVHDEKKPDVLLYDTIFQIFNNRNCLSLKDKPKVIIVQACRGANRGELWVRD
Chain of Caspase-4 (P49662 290-377 limits assumed): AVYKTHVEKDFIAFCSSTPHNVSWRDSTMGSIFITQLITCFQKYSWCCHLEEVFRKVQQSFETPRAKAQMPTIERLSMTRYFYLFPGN

For the molecule `CC(=O)N[C@@H](CC(=O)O)C(=O)N[C@@H](CCC(=O)O)C(=O)N[C@H](C(=O)N[C@H](C=O)CC(=O)O)C(C)C`, the Ki at Caspase-7 was 1.6 nM; at Caspase-10 it was 12 nM; at Caspase-8 [1], 0.92 nM.
In assay [2], `CN(C)CCCN(CC[C@H](N)C(=O)O)C[C@H]1O[C@@H](n2cnc3c(N)ncnc32)[C@H](O)[C@@H]1O` registered an IC50 of 130 nM and an inhibition constant Ki of 14 nM.
On Caspase-3 [3], `CSCC[C@H](NC(=O)[C@H](CC(=O)O)NC(C)=O)C(=O)N[C@@H](CCC(N)=O)C(=O)N[C@H](C=O)CC(=O)O` (Ac-DMQD-aldehyde) showed a Ki of 13.3 nM.
For the molecule `CC(C)(C)OC(=O)NCCCCCN(CCc1ccccc1)C(=O)n1cc(-c2ccc(OC(F)(F)F)cc2)nn1`, the inhibition in assay [4] is 73%.
For `CC(C)[C@H](NC(=O)[C@H](CCC(=O)O)NC(=O)[C@H](C)NC(=O)OC(C)(C)C)C(=O)N[C@H](C=O)CC(=O)O` (Boc-AEVD-aldehyde), the inhibition constant Ki on Caspase-1 [5] was < 12 nM; on Caspase-9, 48 nM; at Caspase-3 [6], 42 nM; on Caspase-8 [7], 1.6 nM; at Caspase-6, 52 nM.
`CC(=O)N[C@@H](CC(C)C)C(=O)N[C@@H](CCC(=O)O)C(=O)N[C@@H](Cc1cnc[nH]1)C(=O)N[C@H](C=O)CC(=O)O` (Ac-LEHD-aldehyde): the results for the IC50 against Caspase-8 [8] and on Caspase-1 [9] were 3.82 nM and 15 nM, respectively.
On Caspase-4, `CC(=O)N[C@@H](CC(C)C)C(=O)N[C@@H](CCC(=O)O)C(=O)N[C@H](C(=O)N[C@H](C=O)CC(=O)O)C(C)C` (Ac-LEVD-aldehyde) returned an IC50 of 84 nM.
`CC[C@H](C)[C@H](NC(C)=O)C(=O)N[C@@H](CCC(=O)O)C(=O)N[C@H](C(=O)N[C@H](C=O)CC(=O)O)[C@@H](C)O` (Ac-IETD-aldehyde) displayed an IC50 at Caspase-8 [10] of 5 nM.
As to `O=C(Nc1ccccc1C(=O)O)c1cc(S(=O)(=O)c2ccccc2)ccc1Cl`, in [11], the IC50 was found to be 11 nM and the affinity corresponds to a Ki of 5.02 nM.
Molecule `CCN(c1cc(C#CCN2CCOCC2)cc(C(=O)NCc2c(C)cc(C)[nH]c2=O)c1C)[C@H]1CC[C@H](N(C)CCOC)CC1` gave an IC50 in assay [12] of 103 nM. Also, the Ki in assay [13] is 45 nM.
On to `CCCC(NC(=O)C(CC(C)C)NC(=O)OCc1ccccc1)C(=O)C(=O)NCc1ccccn1` (racemic), for which, in assay [14], the Ki turned out to be 120 nM.
